According to patent publication US12319655B2, “RAF kinase inhibitors and methods of use thereof” (Deciphera Pharmaceuticals, LLC, priority 2021, dated 2025):

What follows are molecules tested on WM3629 cells (assay: WM3629 Cell Proliferation Assay (1)). Details: not given.
Format: cell-based

Compound | IC50 [nM]
CNC(=O)c1cc(-c2cc(-c3cc(NC(=O)c4cccc(C(F)(F)F)c4)cnc3C)ccn2)ccn1 [Example 52] | ≤ 100
CCOc1ncc(-c2cc(NC(=O)c3ccnc(C(F)(F)F)c3)ccc2C)cc1-c1ccnc(C(=O)NC)c1 [Example 69] | ≤ 100
Cc1ccc(NC(=O)c2ccnc(C(C)(C)C#N)c2)cc1-c1cccc(-c2cc(NC(=O)C3CC3)ncn2)c1 [Example 77] | ≤ 100
Cc1ccc(NC(=O)c2ccnc(C(F)(F)F)c2)cc1-c1cccc(-c2cc(NC(=O)C3CC3)ncn2)c1 [Example 80] | ≤ 100
Cc1ccc(NC(=O)c2ccnc(C(C)(C)F)c2)cc1-c1cncc(-c2cc(NC(=O)C3CC3)ncn2)c1 [Example 394] | ≤ 100
Cc1ccc(NC(=O)c2ccnc(C3(C#N)CC3)c2)cc1-c1cncc(-c2cc(NC(=O)C3CC3)ncn2)c1 [Example 395] | ≤ 100
Cc1ccc(NC(=O)c2ccnc(C(F)(F)F)c2)cc1-c1cncc(-c2cc(NC(=O)C3CC3)ncn2)c1 [Example 397] | ≤ 100

The molecules below were run on Miapaca-2 cells (assay: MiaPaca-2 Combination Cell proliferation Assay (1) with cobimetinib). Details: MiaPaca-2 cell proliferation, read-out: MiaPaca-2 Combo (1) IC50.
Format: cell-based

IC50 [nM] | Compound
≤ 100 | CC(=O)Nc1cc(-c2cc(-c3cc(NC(=O)c4ccnc(C(F)(F)F)c4)ccc3C)cc(OCCO)n2)ccn1 [Example 1, N-(3-(2′-acetamido-6-(2-hydroxyethoxy)-[2,4′-bipyridin]-4-yl)-4-methylphenyl)-2-(trifluoromethyl)isonicotinamide]
≤ 100 | CC(=O)Nc1cc(-c2cc(-c3cc(NC(=O)c4ccnc(C(F)(F)F)c4)c(F)cc3C)ccn2)ccn1 [Example 2]
100 to 500 | Cc1ccc(NC(=O)c2ccnc(C(F)(F)F)c2)cc1-c1ccnc(-c2ccnc(NC(=O)CC#N)c2)c1 [Example 39, N-(3-(2′-(2-cyanoacetamido)-[2,4′-bipyridin]-4-yl)-4-methylphenyl)-2-(trifluoromethyl)isonicotinamide]
≤ 100 | CC(=O)Nc1cc(-c2cc(-c3cc(NC(=O)c4ccnc(C(F)(F)F)c4)ccc3C)nc(N(C)C)n2)ccn1 [Example 41, N-(3-(6-(2-acetamidopyridin-4-yl)-2-(dimethylamino)pyrimidin-4-yl)-4-methylphenyl)-2-(trifluoromethyl)isonicotinamide]
100 to 500 | Cc1ccc(NC(=O)c2ccnc(C(C)(C)C#N)c2)cc1-c1cncc(-c2ccnc3c2CC(=O)N3)n1 [Example 43]
100 to 500 | CNC(=O)c1cc(-c2cncc(-c3cc(NC(=O)c4ccnc(C(F)(F)F)c4)ccc3C)n2)ccn1 [Example 47]
≤ 100 | CNC(=O)c1cc(-c2cc(-c3cc(NC(=O)c4ccnc(C(F)F)c4)ccc3C)ccn2)ccn1 [Example 48]
≤ 100 | CNC(=O)c1cc(-c2cc(-c3cc(NC(=O)c4ccnc(C(C)(C)C#N)c4)ccc3C)ccn2)ccn1 [Example 50]
≤ 100 | Cc1ccc(NC(=O)c2ccnc(C(F)(F)F)c2)cc1-c1ccnc(-c2ccnc(NC(=O)C3CC3)c2)c1 [Example 54]
≤ 100 | COCC(=O)Nc1cc(-c2cc(-c3cc(NC(=O)c4ccnc(C(C)(C)C#N)c4)ccc3C)ccn2)ccn1 [Example 61]
100 to 500 | Cc1ccc(NC(=O)c2ccnc(C(F)(F)F)c2)cc1-c1cccc(-c2ccnc(NC(=O)CC#N)c2)c1 [Example 62]
100 to 500 | Cc1ccc(NC(=O)c2ccnc(C(C)(C)C#N)c2)cc1-c1ccnc(-c2ccnc(NC(=O)CC#N)c2)c1 [Example 63]
≤ 100 | CCOc1ncc(-c2cc(NC(=O)c3ccnc(C(F)(F)F)c3)ccc2C)cc1-c1ccnc(NC(C)=O)c1 [Example 68]
≤ 100 | CNC(=O)c1cc(-c2cc(-c3cc(C(=O)Nc4ccnc(C(C)(C)C#N)c4)ccc3C)ccn2)ccn1 [Example 74]
≤ 100 | Cc1ccc(NC(=O)c2ccnc(C(C)(C)C#N)c2)cc1-c1cccc(-c2cc(NC(=O)C3CC3)ncn2)c1 [Example 77]
≤ 100 | CNC(=O)c1cc(-c2nccc(-c3cc(NC(=O)c4ccnc(C(C)(C)C#N)c4)ccc3C)n2)ccn1 [Example 78]
≤ 100 | CC(=O)Nc1cc(-c2cccc(-c3cc(NC(=O)c4ccnc(C(C)(C)C#N)c4)ccc3C)c2)ncn1 [Example 79]
≤ 100 | Cc1ccc(NC(=O)c2ccnc(C(F)(F)F)c2)cc1-c1cccc(-c2cc(NC(=O)C3CC3)ncn2)c1 [Example 80]
≤ 100 | CNC(=O)c1cc(-c2cncc(-c3cc(NC(=O)c4ccnc(C(C)(C)C#N)c4)ccc3C)n2)ccn1 [Example 86]
≤ 100 | COCC(=O)Nc1cc(-c2nccc(-c3cc(NC(=O)c4ccnc(C(C)(C)C#N)c4)ccc3C)n2)ccn1 [Example 88]
≤ 100 | CC(=O)Nc1cc(-c2cc(-c3cc(NC(=O)c4ccnc(C(C)(C)C#N)c4)ccc3C)nc(C)n2)ccn1 [Example 89]
1000 to 10000 | Cc1ccc(NC(=O)c2ccnc(C(C)(C)F)c2)cc1-c1cncc(-c2cc(NC(=O)C3CC3)ncn2)c1 [Example 394]
